These results are taken from ChEMBL document CHEMBL4152322, “Dihydropyrimidinone/1,2,3-triazole hybrid molecules: Synthesis and anti-varicella-zoster virus (VZV) evaluation” (Eur J Med Chem, 2018).

Active and inactive are the calls of the source. No cut-off for these calls is given here. Some results are limits rather than exact numbers.

The nature of series [1]: Cytostatic activity against human HEL cells after 3 days by coulter counter method. The format is ADME, cell-based.
Series [2] relates to Human alphaherpesvirus 3. The experiment in a line: Antiviral activity against thymidine kinase expressing Varicella-Zoster virus Oka infected in human HEL cells assessed as reduction in plaque formation after 5 days. The series is classed as functional, organism-based. To be noted: Human alphaherpesvirus 3, strain Oka vaccine, 120 h.
Series [3] concerns Human alphaherpesvirus 3. In words: Antiviral activity against thymidine kinase deficient Varicella-Zoster virus 07-1 infected in human HEL cells assessed as reduction in plaque formation after 5 days. The format is functional, organism-based. The note with it: Human alphaherpesvirus 3, 07-1, HEL, 120 h.
The subject of series [4] is Human betaherpesvirus 5. In words: Antiviral activity against HCMV AD169 infected in human HEL cells assessed as reduction in virus-induced cytopathic effect after 7 days. The format is functional, organism-based.
Series [5] deals with Human betaherpesvirus 5. The experiment in a line: Antiviral activity against HCMV Davis infected in human HEL cells assessed as reduction in virus-induced cytopathic effect after 7 days. The series is classed as functional, organism-based. On the technique in general: Damage to the host cells serves as the signal in cytopathic effect assays.

As usually defined, the CC50 is the concentration giving 50% cytotoxicity. Usually EC50 stands for the concentration giving half of the maximal effect. In the case of `O=c1[nH]c(=O)n([C@H]2C[C@H](O)[C@@H](CO)O2)cc1/C=C/Br` [BRIVUDINE], the half-maximal cytotoxic concentration (CC50) at 72 h in series [1] is over 300 µM. Besides, the values for the concentration for a half-maximal effect (EC50) in the series on Human alphaherpesvirus 3 [2] and with Human alphaherpesvirus 3 [3] were 0.025 µM and 104 µM, respectively.

Take `COc1ccc(OC)c(C2C(C(C)=O)=C(C)N(Cc3cn(Cc4ccccc4)nn3)C(=O)N2Cc2cn(Cc3ccccc3)nn2)c1` (stereo unspecified): the outcome with Human betaherpesvirus 5 [4] and with Human betaherpesvirus 5 [5] was inactive. The compound also came in with a CC50 at 72 h in series [1] of over 100 µM. The EC50 in the series on Human alphaherpesvirus 3 [2] stood at 9.85 µM; in the series on Human alphaherpesvirus 3 [3] it was 8.87 µM.

Regarding `COc1ccc(OC)c(C2NC(=O)N(Cc3cn(Cc4ccc([N+](=O)[O-])cc4)nn3)C(C)=C2C(C)=O)c1` (stereo unspecified), the outcome in the series on Human betaherpesvirus 5 [4] and in the series with Human betaherpesvirus 5 [5] was inactive. Besides, the 50% effective concentration (EC50) in the series on Human alphaherpesvirus 3 [2] was 44.7 µM; in the series with Human alphaherpesvirus 3 [3] it was 48.1 µM.

With `CC(=O)C1=C(C)N(Cc2cn(Cc3ccccc3)nn2)C(=O)NC1c1ccc(OCc2cn(Cc3ccccc3)nn2)cc1` (stereo unspecified), the outcome in the series with Human betaherpesvirus 5 [4] and with Human betaherpesvirus 5 [5] was inactive. Moreover, the CC50 at 72 h in series [1] is over 100 µM. For the same compound, the EC50 stood at 11.3 µM in the series with Human alphaherpesvirus 3 [2] and 10.8 µM in the series with Human alphaherpesvirus 3 [3].

Consider `CC(=O)C1=C(C)N(Cc2cn(Cc3ccc([N+](=O)[O-])cc3)nn2)C(=O)N(Cc2cn(Cc3ccc([N+](=O)[O-])cc3)nn2)C1c1ccccc1` (stereo unspecified), for which the outcome in the series with Human betaherpesvirus 5 [4] and with Human betaherpesvirus 5 [5] was inactive. The compound further came in with a CC50 at 72 h in series [1] of over 100 µM. Moreover, the values for the EC50 with Human alphaherpesvirus 3 [2] and in the series with Human alphaherpesvirus 3 [3] were 3.62 µM and 7.85 µM, respectively.

Regarding `Nc1nc2c(ncn2COCCO)c(=O)[nH]1` [ACYCLOVIR], the CC50 at 72 h in series [1] is over 440 µM. For the same compound, the EC50 in the series on Human alphaherpesvirus 3 [2] was found to be 2.35 µM; in the series on Human alphaherpesvirus 3 [3] it was 133 µM.

`COc1ccc(OC)c(C2NC(=O)N(Cc3cn(Cc4ccccc4)nn3)C(C)=C2C(C)=O)c1` (stereo unspecified): the outcome with Human betaherpesvirus 5 [4] and with Human betaherpesvirus 5 [5] was inactive. Besides, the results for the 50% effective concentration (EC50) in the series with Human alphaherpesvirus 3 [2] and in the series with Human alphaherpesvirus 3 [3] were 48.9 µM and 50.2 µM, respectively.

In the case of `CC(=O)C1=C(C)N(Cc2cn(Cc3ccc([N+](=O)[O-])cc3)nn2)C(=O)N(Cc2cn(Cc3ccc([N+](=O)[O-])cc3)nn2)C1c1ccc(OCc2cn(Cc3ccc([N+](=O)[O-])cc3)nn2)cc1` (stereo unspecified), the result in the series with Human betaherpesvirus 5 [4] and in the series with Human betaherpesvirus 5 [5] was inactive. For the same compound, the half-maximal effective concentration (EC50) in the series with Human alphaherpesvirus 3 [2] is 69.9 µM; in the series with Human alphaherpesvirus 3 [3], over 20 µM.

As for `CC(=O)C1=C(C)N(Cc2cn(Cc3ccccc3)nn2)C(=O)N(Cc2cn(Cc3ccccc3)nn2)C1c1ccc(N(C)C)cc1` (stereo unspecified), the result in the series on Human betaherpesvirus 5 [4] and with Human betaherpesvirus 5 [5] was inactive. In addition, the concentration for a half-maximal effect (EC50) came out at 23.2 µM in the series with Human alphaherpesvirus 3 [2] and 17 µM with Human alphaherpesvirus 3 [3].

With `CC(=O)C1=C(C)N(Cc2cn(Cc3ccc([N+](=O)[O-])cc3)nn2)C(=O)NC1c1ccccc1` (stereo unspecified), the result in the series with Human betaherpesvirus 5 [4] and in the series with Human betaherpesvirus 5 [5] was inactive. In addition, the figures for the EC50 in the series on Human alphaherpesvirus 3 [2] and with Human alphaherpesvirus 3 [3] were 48.9 µM and 42.6 µM, respectively.

Regarding `CC(=O)C1=C(C)N(Cc2cn(Cc3ccccc3)nn2)C(=O)N(Cc2cn(Cc3ccccc3)nn2)C1c1ccccc1` (stereo unspecified), the result in the series on Human betaherpesvirus 5 [4] and in the series on Human betaherpesvirus 5 [5] was inactive. The 50% cytotoxic concentration (CC50) at 72 h in series [1] is 7.02 µM. Besides, the EC50 with Human alphaherpesvirus 3 [2] amounted to 8.38 µM; in the series with Human alphaherpesvirus 3 [3], 6.08 µM.
